Test results reported in publication PMC6540285, “Evaluation of Protein Kinase Inhibitors with PLK4 Cross-Over Potential in a Pre-Clinical Model of Cancer” (International Journal of Molecular Sciences, 2019).

Tests used:
[1] = tested on: RT and MB cells; assay: Beta-galactosidase senescence assay; assay type: cell-based; conditions: all cell lines
Description: Senescence was evaluated using the Beta-galactosidase assay (Senescence Cells Histochemical Staining Kit CS0030 (Sigma, St Louis, MO, USA) and clonogenic recovery assay as previously described.

[2] = molecular target: ADRBK2 (GRK3) (Homo sapiens, UniProt P35626); assay: SelectScreen kinase profiling, ZLYTE; assay type: biochemical
[3] = molecular target: CAMK2D (CaMKII delta) (Homo sapiens, UniProt Q13557); assay: SelectScreen kinase profiling, ZLYTE; assay type: biochemical
[4] = molecular target: CDC42 BPB (MRCKB) (Homo sapiens, UniProt Q9Y5S2); assay: SelectScreen kinase profiling, ZLYTE; assay type: biochemical
[5] = molecular target: CDK11 (Inactive) (Homo sapiens, UniProt Q9BWU1); assay: SelectScreen kinase profiling, LanthaScreen binding
[6] = molecular target: CDK13/cyclin K (Homo sapiens, UniProt Q14004); assay: as above; conditions: read-out: % Inhibition Avg
Chain of CDK13/cyclin K (Q14004 whole entry): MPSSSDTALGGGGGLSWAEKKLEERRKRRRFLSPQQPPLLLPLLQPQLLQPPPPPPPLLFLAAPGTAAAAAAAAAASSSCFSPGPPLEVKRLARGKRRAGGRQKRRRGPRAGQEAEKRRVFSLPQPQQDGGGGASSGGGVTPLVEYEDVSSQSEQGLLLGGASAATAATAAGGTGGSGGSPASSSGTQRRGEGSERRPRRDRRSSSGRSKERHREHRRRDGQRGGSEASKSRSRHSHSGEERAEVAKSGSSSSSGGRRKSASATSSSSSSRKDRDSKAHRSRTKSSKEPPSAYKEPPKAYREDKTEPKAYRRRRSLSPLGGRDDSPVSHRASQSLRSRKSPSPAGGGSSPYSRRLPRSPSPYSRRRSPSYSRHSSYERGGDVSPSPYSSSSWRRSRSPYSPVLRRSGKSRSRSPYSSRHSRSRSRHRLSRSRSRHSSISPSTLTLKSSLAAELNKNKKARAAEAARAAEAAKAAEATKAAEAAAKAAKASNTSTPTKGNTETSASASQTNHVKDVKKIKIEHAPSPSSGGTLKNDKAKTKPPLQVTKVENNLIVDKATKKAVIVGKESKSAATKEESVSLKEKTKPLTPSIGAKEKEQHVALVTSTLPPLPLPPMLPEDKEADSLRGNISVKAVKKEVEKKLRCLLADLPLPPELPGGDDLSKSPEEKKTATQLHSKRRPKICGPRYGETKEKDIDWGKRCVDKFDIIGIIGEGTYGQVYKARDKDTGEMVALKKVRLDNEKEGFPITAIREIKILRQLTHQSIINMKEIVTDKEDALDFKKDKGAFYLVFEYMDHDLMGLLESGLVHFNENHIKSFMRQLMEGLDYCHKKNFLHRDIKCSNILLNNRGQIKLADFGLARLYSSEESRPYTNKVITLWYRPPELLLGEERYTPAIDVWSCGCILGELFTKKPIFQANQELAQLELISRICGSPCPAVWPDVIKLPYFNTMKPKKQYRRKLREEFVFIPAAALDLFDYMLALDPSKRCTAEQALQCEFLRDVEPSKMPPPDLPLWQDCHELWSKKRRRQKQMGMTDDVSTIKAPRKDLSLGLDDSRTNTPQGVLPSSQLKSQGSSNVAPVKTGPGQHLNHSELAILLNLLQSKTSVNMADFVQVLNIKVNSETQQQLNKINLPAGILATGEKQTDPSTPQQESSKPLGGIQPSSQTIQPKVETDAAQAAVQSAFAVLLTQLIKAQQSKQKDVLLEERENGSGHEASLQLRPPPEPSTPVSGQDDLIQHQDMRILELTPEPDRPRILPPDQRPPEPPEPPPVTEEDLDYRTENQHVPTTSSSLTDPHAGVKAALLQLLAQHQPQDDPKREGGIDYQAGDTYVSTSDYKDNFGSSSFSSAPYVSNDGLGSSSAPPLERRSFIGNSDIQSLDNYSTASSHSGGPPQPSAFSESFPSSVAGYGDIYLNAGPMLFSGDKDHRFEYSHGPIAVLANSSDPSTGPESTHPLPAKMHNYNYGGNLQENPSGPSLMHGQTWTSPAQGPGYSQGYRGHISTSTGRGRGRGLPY
Chain of CDK13/cyclin K (O75909 whole entry partner): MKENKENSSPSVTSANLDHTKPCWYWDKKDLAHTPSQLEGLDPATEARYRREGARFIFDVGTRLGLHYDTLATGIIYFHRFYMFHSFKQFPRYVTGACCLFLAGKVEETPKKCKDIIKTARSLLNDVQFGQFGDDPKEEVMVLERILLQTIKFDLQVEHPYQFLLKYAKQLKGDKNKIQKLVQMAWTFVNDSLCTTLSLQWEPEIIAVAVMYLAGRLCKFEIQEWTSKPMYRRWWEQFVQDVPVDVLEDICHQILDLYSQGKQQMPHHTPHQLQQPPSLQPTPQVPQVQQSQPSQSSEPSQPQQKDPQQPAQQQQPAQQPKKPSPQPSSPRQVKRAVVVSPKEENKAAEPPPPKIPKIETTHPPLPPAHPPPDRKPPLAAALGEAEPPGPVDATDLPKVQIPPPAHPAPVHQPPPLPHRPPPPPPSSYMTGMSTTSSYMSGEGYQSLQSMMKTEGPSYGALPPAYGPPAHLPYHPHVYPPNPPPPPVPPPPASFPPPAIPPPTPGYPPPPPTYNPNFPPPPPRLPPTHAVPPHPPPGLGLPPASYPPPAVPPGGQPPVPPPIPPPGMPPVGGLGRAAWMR

[7] = molecular target: CDK9/cyclin K (Homo sapiens, UniProt P50750); assay: as above
[8] = molecular target: DAPK1 (Homo sapiens, UniProt P53355); assay: SelectScreen kinase profiling, Adapta; assay type: biochemical; conditions: DAPK1, 10 µM
[9] = molecular target: DDR2 (Homo sapiens, UniProt Q16832); assay: SelectScreen kinase profiling, LanthaScreen binding; conditions: DDR2, 10 µM
[10] = molecular target: EPHA7 (Homo sapiens, UniProt Q15375); assay: as above; conditions: EPHA7, 10 µM
[11] = molecular target: IGF1R (Homo sapiens, UniProt P08069); assay: SelectScreen kinase profiling, ZLYTE; assay type: biochemical
[12] = molecular target: T1, JAK2 JH1 JH2 V617F (Homo sapiens, UniProt O60674, V617F); assay: SelectScreen kinase profiling, ZLYTE; assay type: biochemical
T1 construct: JAK2 JH1 JH2 V617F

[13] = molecular target: MAP3K19 (YSK4) (Homo sapiens, UniProt Q56UN5); assay: SelectScreen kinase profiling, ZLYTE; assay type: biochemical
[14] = molecular target: MARK4 (Homo sapiens, UniProt Q96L34); assay: SelectScreen kinase profiling, ZLYTE; assay type: biochemical; conditions: MARK4, 10 µM
[15] = molecular target: PI4KA (PI4K alpha) (Homo sapiens, UniProt P42356); assay: SelectScreen kinase profiling, Adapta; assay type: biochemical
[16] = molecular target: PKMYT1 (Homo sapiens, UniProt Q99640); assay: SelectScreen kinase profiling, LanthaScreen binding; conditions: PKMYT1, 10 µM
Chain of PKMYT1 (Q99640 whole entry): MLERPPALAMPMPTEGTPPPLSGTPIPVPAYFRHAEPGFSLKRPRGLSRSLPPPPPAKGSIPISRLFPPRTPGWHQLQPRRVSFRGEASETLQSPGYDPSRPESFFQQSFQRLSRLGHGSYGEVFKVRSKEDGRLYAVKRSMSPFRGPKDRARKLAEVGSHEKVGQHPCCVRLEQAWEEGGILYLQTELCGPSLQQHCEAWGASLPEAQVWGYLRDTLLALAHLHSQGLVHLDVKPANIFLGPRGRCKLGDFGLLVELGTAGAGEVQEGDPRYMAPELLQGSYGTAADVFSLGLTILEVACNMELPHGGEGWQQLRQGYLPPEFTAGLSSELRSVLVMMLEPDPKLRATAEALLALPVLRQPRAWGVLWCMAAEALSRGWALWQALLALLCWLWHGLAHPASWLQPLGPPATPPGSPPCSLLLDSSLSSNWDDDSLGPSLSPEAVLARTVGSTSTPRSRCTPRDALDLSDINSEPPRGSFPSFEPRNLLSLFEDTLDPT

[17] = molecular target: PRKCA (PKC alpha) (Homo sapiens, UniProt P17252); assay: SelectScreen kinase profiling, ZLYTE; assay type: biochemical
[18] = molecular target: RAF1 (cRAF) Y340D Y341D (Homo sapiens, UniProt P04049, Y340D/Y341D); assay: SelectScreen kinase profiling, LanthaScreen binding
[19] = molecular target: STK32B (YANK2) (Homo sapiens, UniProt Q9NY57); assay: as above
[20] = molecular target: STK38 (NDR) (Homo sapiens, UniProt Q15208); assay: as above
[21] = molecular target: STK32C (YANK3) (Homo sapiens, UniProt Q86UX6); assay: as above
From the text: (§1) Kinase Technology % Inhibition Avg Kinase Technology % Inhibition Avg […]

[22] = molecular target: STK33 (Homo sapiens, UniProt Q9BYT3); assay: as above; conditions: STK33, 10 µM
Chain of STK33 (Q9BYT3 whole entry): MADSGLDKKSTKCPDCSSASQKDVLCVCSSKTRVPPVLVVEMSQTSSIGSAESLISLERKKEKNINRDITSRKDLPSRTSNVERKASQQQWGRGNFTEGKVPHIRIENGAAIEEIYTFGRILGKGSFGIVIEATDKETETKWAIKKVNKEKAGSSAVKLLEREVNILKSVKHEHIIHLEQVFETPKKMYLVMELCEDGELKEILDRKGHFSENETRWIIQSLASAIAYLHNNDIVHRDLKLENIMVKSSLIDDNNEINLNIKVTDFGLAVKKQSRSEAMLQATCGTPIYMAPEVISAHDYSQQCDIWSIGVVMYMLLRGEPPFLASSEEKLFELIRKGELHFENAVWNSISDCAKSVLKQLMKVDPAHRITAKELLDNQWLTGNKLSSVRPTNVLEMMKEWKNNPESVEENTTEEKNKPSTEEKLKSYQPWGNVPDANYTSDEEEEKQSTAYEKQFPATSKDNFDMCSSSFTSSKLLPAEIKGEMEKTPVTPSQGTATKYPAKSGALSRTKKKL
From the text: as §1

[23] = molecular target: STK38L (NDR2) (Homo sapiens, UniProt Q9Y2H1); assay: as above
From the text: as §1

[24] = molecular target: STK39 (STLK3) (Homo sapiens, UniProt Q9UEW8); assay: as above
From the text: as §1

[25] = molecular target: TAOK3 (JIK) (Homo sapiens, UniProt Q9H2K8); assay: as above
Chain of TAOK3 (JIK) (Q9H2K8 whole entry): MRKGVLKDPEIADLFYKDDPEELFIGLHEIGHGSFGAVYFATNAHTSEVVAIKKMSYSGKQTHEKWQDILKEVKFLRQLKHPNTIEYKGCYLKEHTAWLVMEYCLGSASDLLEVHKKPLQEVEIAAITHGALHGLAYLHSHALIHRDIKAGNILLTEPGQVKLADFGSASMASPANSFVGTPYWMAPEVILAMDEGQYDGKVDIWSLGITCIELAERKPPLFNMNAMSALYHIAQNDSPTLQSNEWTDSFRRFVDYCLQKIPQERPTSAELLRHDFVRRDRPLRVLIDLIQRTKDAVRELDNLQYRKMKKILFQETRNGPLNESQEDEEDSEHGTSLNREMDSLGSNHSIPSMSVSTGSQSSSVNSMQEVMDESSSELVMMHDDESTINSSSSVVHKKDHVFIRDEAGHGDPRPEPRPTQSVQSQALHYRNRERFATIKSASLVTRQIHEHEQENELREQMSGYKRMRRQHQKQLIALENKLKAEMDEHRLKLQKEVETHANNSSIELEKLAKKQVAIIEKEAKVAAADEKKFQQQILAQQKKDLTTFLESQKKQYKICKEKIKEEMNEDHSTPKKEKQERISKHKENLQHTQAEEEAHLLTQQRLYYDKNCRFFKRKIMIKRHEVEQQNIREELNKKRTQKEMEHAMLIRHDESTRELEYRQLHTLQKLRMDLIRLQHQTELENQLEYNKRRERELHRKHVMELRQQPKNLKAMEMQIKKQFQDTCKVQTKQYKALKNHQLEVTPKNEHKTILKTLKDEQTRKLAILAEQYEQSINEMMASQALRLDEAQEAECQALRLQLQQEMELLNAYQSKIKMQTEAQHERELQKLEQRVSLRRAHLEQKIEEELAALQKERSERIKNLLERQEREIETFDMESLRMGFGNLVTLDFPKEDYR
From the text: as §1

[26] = molecular target: TEC (Homo sapiens, UniProt P42680); assay: as above
From the text: as §1

[27] = molecular target: TEK (TIE2) R849W (Homo sapiens, UniProt Q02763, R849W); assay: as above
From the text: as §1

[28] = molecular target: TGFBR2 (Homo sapiens, UniProt P37173); assay: as above; conditions: TGFBR2, 10 µM
From the text: as §1

[29] = molecular target: TLK2 (Homo sapiens, UniProt Q86UE8); assay: as above; conditions: TLK2, 10 µM
From the text: as §1

[30] = molecular target: TNK2 (ACK) (Homo sapiens, UniProt Q07912); assay: as above
From the text: as §1

[31] = molecular target: TTK (Homo sapiens, UniProt P33981); assay: as above
From the text: as §1

[32] = molecular target: ULK2 (Homo sapiens, UniProt Q8IYT8); assay: as above; conditions: ULK2, 10 µM
Chain of ULK2 (Q8IYT8 whole entry): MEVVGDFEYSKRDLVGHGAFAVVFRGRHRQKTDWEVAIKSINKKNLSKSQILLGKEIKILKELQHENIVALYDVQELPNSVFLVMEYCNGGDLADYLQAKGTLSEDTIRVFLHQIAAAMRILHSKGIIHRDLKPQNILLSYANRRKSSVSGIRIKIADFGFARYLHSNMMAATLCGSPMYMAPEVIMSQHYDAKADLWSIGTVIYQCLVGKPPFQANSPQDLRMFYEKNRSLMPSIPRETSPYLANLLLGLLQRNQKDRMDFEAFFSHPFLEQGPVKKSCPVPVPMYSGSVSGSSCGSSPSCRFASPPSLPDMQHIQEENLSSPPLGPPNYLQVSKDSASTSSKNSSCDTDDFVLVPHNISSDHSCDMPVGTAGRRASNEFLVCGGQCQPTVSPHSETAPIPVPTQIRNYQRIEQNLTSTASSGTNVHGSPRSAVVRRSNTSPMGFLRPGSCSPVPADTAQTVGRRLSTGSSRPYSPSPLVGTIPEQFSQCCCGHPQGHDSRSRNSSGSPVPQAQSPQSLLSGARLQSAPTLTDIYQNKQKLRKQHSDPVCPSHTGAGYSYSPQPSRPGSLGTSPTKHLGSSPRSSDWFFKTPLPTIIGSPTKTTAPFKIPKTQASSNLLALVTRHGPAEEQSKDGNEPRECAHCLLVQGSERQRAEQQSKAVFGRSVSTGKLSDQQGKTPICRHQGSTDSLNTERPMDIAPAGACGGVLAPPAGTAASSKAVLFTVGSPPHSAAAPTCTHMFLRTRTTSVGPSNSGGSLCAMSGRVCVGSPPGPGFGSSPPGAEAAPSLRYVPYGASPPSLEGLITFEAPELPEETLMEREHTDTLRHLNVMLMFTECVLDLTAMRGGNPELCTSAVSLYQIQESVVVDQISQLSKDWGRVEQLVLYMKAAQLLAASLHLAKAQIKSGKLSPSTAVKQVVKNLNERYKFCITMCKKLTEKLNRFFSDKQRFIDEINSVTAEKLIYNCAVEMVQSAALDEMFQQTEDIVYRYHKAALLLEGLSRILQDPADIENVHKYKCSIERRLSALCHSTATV
From the text: as §1

[33] = molecular target: VRK2 (Homo sapiens, UniProt Q86Y07); assay: as above; conditions: VRK2, 10 µM
From the text: as §1

[34] = molecular target: WNK1 (Homo sapiens, UniProt Q9H4A3); assay: as above; conditions: WNK1, 10 µM
From the text: as §1

[35] = molecular target: WNK2 (Homo sapiens, UniProt Q9Y3S1); assay: as above; conditions: WNK2, 10 µM
From the text: as §1

[36] = molecular target: WNK3 (Homo sapiens, UniProt Q9BYP7); assay: as above; conditions: WNK3, 10 µM
From the text: as §1

[37] = molecular target: ZAK (Homo sapiens, UniProt Q9NYL2); assay: as above
From the text: as §1

[38] = molecular target: ZAP70 (Homo sapiens, UniProt P43403); assay: SelectScreen kinase profiling, ZLYTE; assay type: biochemical; conditions: ZAP70, 10 µM
From the text: as §1
TESK1 LanthaScreen 37 ZAP70 ZLYTE 24
cleavage (Thermo Fisher Scientific, USA)

Q: What does the source list for `O=C(c1ccc(/C=C/c2n[nH]c3ccccc23)cc1)N1CCNCC1` [KW-2449]?
A: cell senescence (beta-galactosidase) [1]: dose-dependent induction of cell senescence; inhibition at 10 µM [2]: 31%; inhibition at 10 µM [3]: 96%; inhibition at 10 µM [4]: 27%; inhibition at 10 µM [5]: 29%; inhibition at 10 µM [6]: 70%; inhibition at 10 µM [7]: 38%; inhibition at 10 µM [8]: 90%; inhibition at 10 µM [9]: 53%; inhibition at 10 µM [10]: 66%; inhibition at 10 µM [11]: 95%; inhibition at 10 µM [12]: 94%; inhibition at 10 µM [13]: 98%; inhibition at 10 µM [14]: 101%; inhibition at 10 µM [15]: 7%; inhibition at 10 µM [16]: -61%; inhibition at 10 µM [17]: 61%; inhibition at 10 µM [18]: 0%; inhibition at 10 µM [19]: 61%; inhibition at 10 µM [20]: 85%; inhibition at 10 µM [21]: 62%; inhibition at 10 µM [22]: 81%; inhibition at 10 µM [23]: 59%; inhibition at 10 µM [24]: 38%; inhibition at 10 µM [25]: 25%; inhibition at 10 µM [26]: -9%; inhibition at 10 µM [27]: -5%; inhibition at 10 µM [28]: 77%; inhibition at 10 µM [29]: 33%; inhibition at 10 µM [30]: 71%; inhibition at 10 µM [31]: 54%; inhibition at 10 µM [32]: 56%; inhibition at 10 µM [33]: 32%; inhibition at 10 µM [34]: 2%; inhibition at 10 µM [35]: 1%; inhibition at 10 µM [36]: 7%; inhibition at 10 µM [37]: 77%; inhibition at 10 µM [38]: 24%
